Laboratory results reported in patent US20050148634A1, “1-N-Aminobenzimidazole derivatives” (ZERIA PHARMACEUTICAL CO., LTD, priority 2002, published 2005).
Counter-ions that a name gives are not always drawn.

Legend:
H+/K+-ATPase = target: T1, H+/K+-ATPase (Sus scrofa, UniProt P19156); experiment: Test 1 proton pump inhibitory effect: H+/K+-ATPase enzyme inhibiting activity at pH 1; type: biochemical; settings: swine stomach enzyme sample; test compound pretreated in pH 1 hydrochloric acid solution with 50% DMSO for 15 minutes; ATP substrate
T1 construct: An interface fraction obtained by the centrifugation was collected; from tissue; host or cells: swine stomach mucosal layer, membrane fraction from the sucrose interface
T1 sequence (P19156 2-1034 limits assumed): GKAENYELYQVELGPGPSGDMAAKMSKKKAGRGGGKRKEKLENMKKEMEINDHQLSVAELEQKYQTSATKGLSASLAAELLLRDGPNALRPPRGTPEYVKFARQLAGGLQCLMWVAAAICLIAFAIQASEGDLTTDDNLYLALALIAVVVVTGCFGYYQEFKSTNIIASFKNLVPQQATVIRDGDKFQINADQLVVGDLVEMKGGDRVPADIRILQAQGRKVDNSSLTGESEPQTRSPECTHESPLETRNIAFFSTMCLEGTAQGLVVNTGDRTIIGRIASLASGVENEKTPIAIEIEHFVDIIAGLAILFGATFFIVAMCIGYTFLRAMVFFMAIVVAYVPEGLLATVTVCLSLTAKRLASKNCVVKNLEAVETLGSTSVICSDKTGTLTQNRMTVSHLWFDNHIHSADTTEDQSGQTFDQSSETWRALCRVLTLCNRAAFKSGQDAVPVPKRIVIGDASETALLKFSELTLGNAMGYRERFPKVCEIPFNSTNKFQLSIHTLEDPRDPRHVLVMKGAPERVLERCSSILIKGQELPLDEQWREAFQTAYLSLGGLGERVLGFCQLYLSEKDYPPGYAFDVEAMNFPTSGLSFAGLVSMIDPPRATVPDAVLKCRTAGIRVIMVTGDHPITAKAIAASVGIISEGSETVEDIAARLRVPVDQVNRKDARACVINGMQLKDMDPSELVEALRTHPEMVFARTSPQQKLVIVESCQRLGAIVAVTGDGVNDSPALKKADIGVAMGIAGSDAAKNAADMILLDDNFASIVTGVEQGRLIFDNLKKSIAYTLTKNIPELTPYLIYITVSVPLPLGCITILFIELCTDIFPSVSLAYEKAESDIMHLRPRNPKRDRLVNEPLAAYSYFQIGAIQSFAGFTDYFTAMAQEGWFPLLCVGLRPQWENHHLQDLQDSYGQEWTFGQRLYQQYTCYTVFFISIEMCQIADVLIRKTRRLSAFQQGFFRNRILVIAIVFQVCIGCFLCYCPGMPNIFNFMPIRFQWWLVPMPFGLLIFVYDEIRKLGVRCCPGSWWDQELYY
T1 sequence (P18434 whole entry partner): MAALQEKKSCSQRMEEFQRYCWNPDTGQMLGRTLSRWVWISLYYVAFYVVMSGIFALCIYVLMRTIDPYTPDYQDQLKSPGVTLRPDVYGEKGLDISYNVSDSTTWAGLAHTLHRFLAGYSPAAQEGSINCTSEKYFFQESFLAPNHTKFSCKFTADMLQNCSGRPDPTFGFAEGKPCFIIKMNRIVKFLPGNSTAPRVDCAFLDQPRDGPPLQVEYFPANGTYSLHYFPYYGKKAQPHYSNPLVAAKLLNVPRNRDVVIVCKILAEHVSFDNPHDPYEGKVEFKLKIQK
Method: Test 1 (Proton Pump Inhibitory Effect)
(1) Preparation of H^+/K^+-ATPase Enzyme Sample
A swine stomach which had been stored frozen was separated into a muscularis and a mucosal layer. After the mucosal layer was disrupted with a mixer in 5 volumes of 20 mmol/L tris-HCl buffer containing 0.25 mol/L of sucrose and 1 mmol/L of EGTA (pH 7.4, hereafter abbreviated as “tris-HCl buffer”), centrifugation was conducted at 9,000×g for 30 minutes. The supernatant was gently overlaid on 20 mmol/L tris-HCl buffer containing 30% of sucrose and 1 mmol/L of EGTA (pH 7.4, 8 mL), followed by ultracentrifugation at 100,000×g for 60 minutes. An interface fraction obtained by the centrifugation was collected and subjected to centrifugation twice under 113,000×g for 60 minutes. The sediment was suspended with tris-HCl buffer, and the suspension was homogenized at low rotational speed to provide an enzyme sample. The enzyme sample was stored frozen at −80° C. Using the method reported by Smith et al. (Anal. Biochem., 150, 76-85 (1985)), the thus-obtained sample was quantitatively analyzed for its protein content with a BCA protein assay reagent. The above procedure was all conducted under water cooling.
(2) Discussion about H+/K^+-ATPase Enzyme Inhibiting Activity at pH 1
Following a method making use of a method for the quantitation of inorganic phosphorus as a degradation product (Biochem. Biophys. Res. Commun., 40, 880-886 (1970)), an assay of H^+/K^+-ATPase enzyme inhibiting activity was performed by using ATP as a substrate. As a hydrochloric acid solution for the pretreatment of each test compound, a 1×10^−1 mol/L (pH 1) solution of hydrochloric acid with 50% DMSO contained therein was used. Solutions of each test compound at various concentrations were added to aliquots of the hydrochloric acid solution such that the solutions were diluted 1,000-fold, and the thus-diluted solutions were left over at room temperature for 15 minutes. […] 840-μL Aliquots of an enzyme solution (5 μg proteins) diluted with the TE buffer were then added. After incubated at 37° C. for 30 minutes, 50-μL aliquots of 40 mmol/LATP solution (dissolved in the TE buffer free of KCl) were added to initiate an enzymatic reaction (total volume: 1 mL, final ATP concentration: 2 mmol/L). Subsequent to incubation at 37° C. for 30 minutes, 2-mL aliquots of ice-cold 12% trichloroacetic acid were added to terminate the enzymatic reaction. A molybdenum reagent (1 mL; 3.75% ammonium molybdate/1.5 mol/L sulfuric acid) and butyl acetate (5 mL) were added. After vigorous shaking and mixing for 5 minutes, the absorbance of a butyl acetate layer was measured at 310 nm. From absorbances obtained by dissolving KH2PO4 solutions of various concentrations in aliquots of an 8% TCA solution and performing a similar procedure, a standard curve was prepared to perform a conversion of each quantity of inorganic phosphorus. The assay was conducted in duplicate. From a difference between an average quantity of inorganic phosphorus in the case of the KCl-containing TE buffer and an average quantity of inorganic phosphorus in the case of the KCl-free TE buffer, a residual activity was determined. Supposing that the activity of the control value (DMSO) was 100%, the percent inhibition of the compound was calculated. As the inhibition potency of each test compound, an IC50 value was calculated and presented. The test compounds were al used by dissolving them in dimethyl sulfoxide immediately before their use.

[1] = test system: histamine-stimulated gastric acid secretion; experiment: Test 2 gastric acid secretion inhibitory effect, acute fistula method; type: in vivo, Sprague-Dawley (SD) rats; settings: male SD rats, administered into the duodenum; total gastric acid secreted on 3rd-5th hours; Probit method
Method: Test 2 (Gastric Acid Secretion Inhibitory Effect)
(1) As laboratory animals, seven-week old male Sprague-Dawley (SD) rats were purchased from CHARLES RIVER JAPAN, INC. Subsequent to preliminary rearing for 5 days or longer, they were used in an experiment.
Each test medicine was suspended or dissolved in a 0.5% carboxymethylcellulose sodium solution to prepare a volume of 2.5 mL/kg.
(2) Measurement of Gastric Acid Secretion
Using rats fasted for 18 hours, histamine-stimulated gastric acid secretion in an acute fistula method following the method reported by Hiramatsu et al. (Dig. Dis. Sci., 39, 689-697 (1994)) was measured. Described specifically, each rat was lightly anesthetized with diethyl ether. After that, a winged tube needle with 3.8% citric acid solution filled therein was caused to dwell in the caudal vein. Celiotomy was performed, and the pyloric part of the stomach was ligated. A small hole was then formed in the duodenum, and a feeding tube with physiological saline filled therein was caused to dwell there. After the interior of the stomach was washed with physiological saline, a polyethylene-made fistula tube (inner diameter: 4 mm) was fitted to the proventriculus part and an incised part of the proventriculus was ligated to hold the fistula tube in place. The stomach and duodenum were returned into the abdominal cavity. Celiotomy was performed with the fistula tube and feeding tube being left extending outside, and the rat was placed in a Ballman Cage Type II. Histamine was continuously injected through the winged needle allowed to dwell in the caudal vein (8 mg/kg/h, 1.38 mL/h). Fifteen minutes later, the gastric juice was sampled, and after that, the gastric juice was sampled at intervals of 1 hour. After the amount of each gastric juice sample was recorded, it was titrated with 0.1 mol/L NaOH to a final point of pH 7.0. From the volume required for the titration, the acidity was calculated. The quantity of the secreted gastric acid was determined from the product of the amount of the gastric juice and the acidity. Incidentally, the rats were divided into groups such that the total amount of the first gastric juice samples became equal in each group. Each test medicine was administered in a volume of 2.5 mL/kg into the duodenum through the feeding tube fitted beforehand in the duodenum. To a control group, 0.5% Na—CMC solution was administered.
(3) Analysis of the Results
From the results so obtained, data were presented in terms of average ±S.D. The sum of quantities of gastric acid secreted on the 3rd, 4th and 5th hours after the first sampling was recorded as a total quantity of secreted gastric acid. The percent inhibition in each group was calculated from the total quantity of secreted gastric acid in the control group and the total quantity of secreted gastric acid in the group. From the percent inhibition in each group, the 50% effective dose (ED50) was next calculated by the Probit method.

human CYP2C19 = target: T2, human CYP2C19 (Homo sapiens, UniProt P33261); experiment: Test 3 human CYP2C19 activity inhibition test (S-(+)-mephenyloin to 4'-hydroxymephenyloin); type: in vitro ADME; settings: test compound 10 μM; microsomes from human CYP2C19 expression system; formed 4'-hydroxymephenyloin compared with control
T2 construct: purchased Sumitomo Chemical Co., Ltd
T2 sequence (P33261 whole entry): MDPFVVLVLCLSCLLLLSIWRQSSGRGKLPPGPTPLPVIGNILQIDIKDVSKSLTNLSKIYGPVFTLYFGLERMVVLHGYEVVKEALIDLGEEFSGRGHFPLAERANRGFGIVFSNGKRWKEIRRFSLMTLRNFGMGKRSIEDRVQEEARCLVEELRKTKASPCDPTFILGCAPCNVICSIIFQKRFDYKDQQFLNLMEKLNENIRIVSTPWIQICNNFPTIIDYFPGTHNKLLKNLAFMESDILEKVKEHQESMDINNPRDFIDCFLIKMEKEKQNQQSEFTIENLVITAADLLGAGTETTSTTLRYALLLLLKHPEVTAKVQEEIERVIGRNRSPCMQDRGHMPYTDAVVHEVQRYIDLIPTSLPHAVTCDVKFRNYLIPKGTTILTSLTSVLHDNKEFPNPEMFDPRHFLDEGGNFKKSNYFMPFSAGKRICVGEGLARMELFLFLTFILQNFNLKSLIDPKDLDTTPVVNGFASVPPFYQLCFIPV
Method: Test 3 (Human CPY2C19 Activity Inhibition Test)
CYP2C19 specifically induces the metabolic reaction of from S-(+)-mephenyloin into 4′-hydroxymephenyloin. Using the CYP2C19 expression system, the inhibitory effect of each test substance was investigated based on the amount (concentration) of formed 4′-hydroxymephenylion as an index of CYP2C19 activity.
a) Metabolic Activity Test
As a reaction mixture, a 125 μmol/L solution of S-(+)-mephenyloin in methanol (50 μL) and a 25 μmol/L solution of each test substance in methanol (0, 10, 100 or 200 μL) were added to 10-mL test tube made of glass, and the solvent was distilled off under a nitrogen gas stream (40° C.).
After incubated at 37° C. for 10 minutes, a 12% aqueous solution of perchloric acid (50 μL) was added to terminate the reaction.
Subsequent to the termination of the reaction, 10 μg/mL methyl p-hydroxybenzoate (50 μL) as an internal standard (I.S.) and diethyl ether (2 mL) were added. The resulting mixture was shaken for 10 minutes, and then centrifuged (3,000 rpm, 10 minutes). The organic layer was separately collected, and under a nitrogen gas stream (40° C.), the solvent was distilled off. The residue was dissolved in a mobile phase (200 μL), and an analysis was conducted by high performance liquid chromatography (HPLC).
Using a solution of 4′-hydroxymephenyloin in lieu of the S-(+)-mephenyloin solution, a calibration line was prepared following the above-described reaction method. Quantitation was conducted based on a peak area ratio of 4′-hydroxymephenyloin to the I.S. Comparing the formed amount of 4′-hydroxymephenyloin as a control with that of 4′-hydroxymephenyloin at the time of the existence of the test compound, the comparison result was used as an index of activity.
HPLC was conducted under the following HPLC conditions A or HPLC conditions B. […]

Compound | melting point [°C] | IC50 (H+/K+-ATPase) [nM] | other results
Cc1c(OCC(F)(F)F)ccnc1C[S+]([O-])c1nc2ccccc2n1NCC(O)c1ccccc1 (mixture of isomers) [Example 51] |  | 3320 | Gastric acid secretion inhibitory effect ED50 [1]: 2.4 mg/kg
Cc1c(OCC(F)(F)F)ccnc1C[S+]([O-])c1nc2ccccc2n1NCc1ccccc1 (racemic) [Example 49] |  | 1030 | 
CBc1cc(C)nc(C[S+]([O-])c2nc3ccccc3n2N)c1 (stereo not drawn) [Example 7] | 130 to 133 |  | 
C=CCNn1c([S+]([O-])Cc2nccc(OCC(F)(F)F)c2C)nc2ccccc21 (racemic) [Example 64] |  | 2280 | 
COc1ccc2nc([S+]([O-])Cc3ncc(C)c(OC)c3C)n(N)c2n1 (stereo not drawn) [Example 78] | 174 to 175 |  | CYP2C19 activity inhibition (%) (human CYP2C19): 62%
Cc1c(OCC(F)(F)F)ccnc1C[S+]([O-])c1nc2ccccc2n1NCCCCCO (racemic) [Example 54] |  | 3880 | 
Cc1c(OCC(F)(F)F)ccnc1C[S+]([O-])c1nc2ccccc2n1NCCc1ccccc1 (racemic) [Example 50] |  | 870 | 

The next lines start with results.

melting point [°C] | Compound | IC50 (H+/K+-ATPase) [nM] | other results
111 to 113 | Cc1c(OCC(F)(F)F)ccnc1C[S+]([O-])c1nc2ccccc2n1N (single isomer, unassigned; (+)) (as salt: tartrate) [(+) isomer of Example 1, (+)-1-Amino-2-[[4-(2,2,2-trifluoroethoxy)-3-methylpyridin-2-yl]methylsulfinyl]benzimidazole] |  | 
194 to 195 | Cc1c(OCC(F)(F)F)ccnc1C[S+]([O-])c1nc2cc(OC(F)F)ccc2n1N (stereo not drawn) [Example 68] | 3200 | 
